Experimental data as given in PubChem BioAssay (NCI).
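Cells were grown in 96-well plates and exposed to each compound for 48 hours at five concentrations; endpoints were interpolated linearly between bracketing concentrations, or set to the highest concentration if not reached. GI50: concentration for 50% inhibition of growth. TGI denotes the concentration required for complete inhibition of growth.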

Legend:
Assay in all cases: growth of human tumour cells (NCI), 48 h
U251 CNS = tested on: U251 CNS
SK-MEL-5 melanoma = tested on: SK-MEL-5 melanoma
NCI-H460 lung = tested on: NCI-H460 lung
OVCAR-8 ovarian = tested on: OVCAR-8 ovarian
HCC-2998 colon = tested on: HCC-2998 colon
KM12 colon = tested on: KM12 colon
HOP-92 NSCLC = tested on: HOP-92 NSCLC
MCF7 breast = tested on: MCF7 breast
MDA-MB-435 = tested on: MDA-MB-435
MDA-MB-231 breast = tested on: MDA-MB-231 breast

SMILES	TGI (U251 CNS) [µM]	TGI (SK-MEL-5 melanoma) [µM]	TGI (NCI-H460 lung) [µM]	TGI (OVCAR-8 ovarian) [µM]	TGI (HCC-2998 colon) [µM]	TGI (KM12 colon) [µM]	TGI (HOP-92 NSCLC) [µM]	TGI (MCF7 breast) [µM]	GI50 (MDA-MB-435) [µM]	TGI (MDA-MB-435) [µM]	GI50 (U251 CNS) [µM]	GI50 (SK-MEL-5 melanoma) [µM]	GI50 (MDA-MB-231 breast) [µM]	TGI (MDA-MB-231 breast) [µM]	GI50 (NCI-H460 lung) [µM]	GI50 (MCF7 breast) [µM]	GI50 (OVCAR-8 ovarian) [µM]	GI50 (KM12 colon) [µM]	GI50 (HOP-92 NSCLC) [µM]	GI50 (HCC-2998 colon) [µM]
CCN(CC)C(=O)CNC(=O)OC(C)(C)C	> 100	> 100	> 100	> 100	> 100	> 100	> 100													
COc1cc([C@@H]2c3cc4c(cc3[C@@H](NCc3ccc(C#N)cc3)C3COC(=O)[C@@H]32)OCO4)cc(OC)c1O (some centres undefined)	1.55	8.37	1.77	3.01	3.69	3.78	49.4													
Cc1[nH]c2ccccc2c1C1CC(=O)NC1=O (centres undefined)	> 100	> 100	> 100	> 100	> 100	> 100														
CCC(O)(c1ccc(OC)cc1)C(c1ccc(OCc2ccccc2)cc1)c1ccc(OCc2ccccc2)cc1 (centres undefined)	> 100	> 100	> 100	> 100	> 100	> 100	> 100													
CC(C(=O)c1ccccc1)C1(O)C(=O)Nc2ccccc21 (centres undefined)	> 100	> 100	> 100		> 100	> 100	> 100													
C/C(=N\NS(=O)(=O)c1ccc(C)cc1)c1c(O)cc(C)oc1=O	> 100	> 100	> 100	> 100	> 100	> 100	> 100													
C[C@]12CC(C#N)C(=O)C(O)=C1CC[C@@H]1C2CC[C@@]2(C)C1CC[C@@H]2O (some centres undefined)	> 100	> 100	> 100	> 100	> 100	> 100	76.4													
NC1=NC(c2ccccc2)CC(c2cc(Cl)cc(Br)c2O)=N1 (centres undefined)	26.4	25	19.9	38.5	26.4	26.1	38.2	21.4												
O=C(N/C(=C\c1ccc([N+](=O)[O-])cc1)c1nc2ccc(Cl)cc2[nH]1)c1ccccc1	34.9	33.7		> 100	33.8	61.4	34.3													
CC1Cc2c(N)nc(N3CCOCC3)nc2NC1=O (centres undefined)	> 100	> 100	> 100	> 100		> 100														
CC1(C)CCC2(C(=O)O)CC[C@]3(C)C(=CCC4C5(C)CC[C@H](OC6OC(C(=O)O)C(O)C(OC7OC(CO)C(O)C(O)C7O)C6OC6OC(CO)C(O)C(O)C6O)C(C)(C)C5CCC43C)C2C1 (some centres undefined)	89.4	> 100	> 100	> 100		> 100	> 100	> 100	> 100	> 100	32.3	> 100	45	> 100	> 100	53.5	> 100	> 100	> 100	
CC(C)c1cccc(C(C)C)c1N=C(N)C#N	> 93.2	> 100	> 62.5	> 100	> 100	> 100	> 100													
COc1ccc(-c2nc(N)c3ncn(C4OC(CO)C(O)C4O)c3n2)cc1 (centres undefined)	> 100	> 100	> 100	> 100		> 100	> 100	> 100		> 100				> 100						
COC1OC(CBr)C(OC(c2ccccc2)(c2ccccc2)c2ccccc2)C(OC(c2ccccc2)(c2ccccc2)c2ccccc2)C1OC(c1ccccc1)(c1ccccc1)c1ccccc1 (centres undefined)		> 100	> 100	> 100	> 100	> 100	52.4	> 100		> 100										
C[C@@H](NC1CCC[C@@H]1O)c1ccccc1 (some centres undefined)	> 100	> 100	> 100	> 100	> 100	> 100	> 100													
CCCC1C(=O)C(CC)Cc2c(OC)ccc(OC)c21 (centres undefined)	> 100	> 100	> 100	> 100	> 100	> 100	> 100													
C[Si](C)(C)/C=C\CCCN1C(=O)CCC1=O	> 100	> 100	> 100	> 100	> 100	> 100	> 100													
CC(=O)NC1C(OCc2ccccc2)OC(COC(=O)CCCCCNc2ccc([N+](=O)[O-])c3[nH]c4ccc(O)cc4c(=O)c23)C(O)C1OC(C)C(=O)N[C@@H](C)C(=O)N[C@H](CCC(=O)OCc1ccccc1)C(N)=O (some centres undefined)	7.04	> 20	4.33	10.8	10.9		3.61													
N#C/C(=C/C=C/c1ccccc1)S(=O)c1ccccc1 (centres undefined)	1.7	3.05	2.92	1.73	1.18	2.17	1.03		0.485	1.83	0.483	1.65	0.371	1.56	0.506		0.338	0.594	0.319	0.342
NCCCn1c2c(c3cc4c(cc3c1=O)OCO4)C(=O)c1ccccc1-2	0.753	0.656	4.11	1.14	0.718	2.13	2.11		0.567	1.42	0.321	0.215	1.45	2.88	2.06		0.142	0.757	0.437	0.237
COc1cccc(-c2nc(-c3ccc(NC(=O)c4ccccc4)cc3)[nH]c2-c2ccnc(Br)c2)c1	> 100	3.34	> 100	> 100		> 100	> 100	> 100	4.72	> 100	2.1	1.79	3.97	> 100	3.53	2.4	4.02	2.29	6.26	
